Test results reported in patent US12496291B1, “Ready-to-use non-aqueous oral solution of losartan” (Liqmeds Worldwide Limited, priority 2024, dated 2025).

What was measured:
[1] = Solubility study of losartan potassium with different solubilizers and pH modifying agent; type: physicochemical; conditions: losartan potassium 10 mg/mL, below pH 5.5, citrate buffer 50 mM plus solubilizer
Source text: The solubility of losartan potassium below pH 5.5 was checked in the presence of different solubilizers and pH modifying agent.

[2] = descriptive term; cited from earlier work

Observations (solubility of losartan potassium) [1]: insolubility
Structure (SMILES): CCCCc1nc(Cl)c(CO)n1Cc1ccc(-c2ccccc2-c2nnn[nH]2)cc1.[K] [Losartan potassium, 2-butyl-4-chloro-1-[p-(o-1H-tetrazol-5-ylphenyl)benzyl]imidazole-5-methanol monopotassium salt]
Solubility in alcohols [2]: soluble
Solubility in chloroform [2]: practically insoluble
Solubility in common organic solvents, such as acetonitrile and methyl ethyl ketone [2]: slightly soluble
Solubility in water [2]: freely soluble
